Several values for one entry are separate records, joined by “and”; a condition that tells them apart may be missing. Identical values can stand only once.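 96-well plates; 48 h exposure; 5 concentrations. Endpoints by linear interpolation between flanking doses. Not reached: highest tested concentration assigned. Abbreviation: GI50, concentration required for 50% inhibition of growth. At the TGI there is no net growth.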
What was measured:
Test in all cases: NCI tumour cell line growth inhibition, 48 h
DMS 114 small cell lung = tested on: DMS 114 small cell lung
HCT-15 colon = tested on: HCT-15 colon
HL-60(TB) leukemia = tested on: HL-60(TB) leukemia
HOP-62 NSCLC = tested on: HOP-62 NSCLC
KM20L2 colon = tested on: KM20L2 colon
MDA-MB-435 = tested on: MDA-MB-435
OVCAR-5 ovarian = tested on: OVCAR-5 ovarian
OVCAR-8 ovarian = tested on: OVCAR-8 ovarian
SF-539 CNS = tested on: SF-539 CNS
SNB-75 CNS = tested on: SNB-75 CNS

SMILES	TGI (DMS 114 small cell lung)	GI50 (HCT-15 colon)	TGI (HCT-15 colon)	GI50 (HL-60(TB) leukemia)	TGI (HL-60(TB) leukemia)	GI50 (HOP-62 NSCLC)	TGI (HOP-62 NSCLC)	TGI (KM20L2 colon)	TGI (MDA-MB-435)	GI50 (OVCAR-5 ovarian)	TGI (OVCAR-5 ovarian)	GI50 (OVCAR-8 ovarian)	TGI (OVCAR-8 ovarian)	GI50 (SF-539 CNS)	TGI (SF-539 CNS)	TGI (SNB-75 CNS)
C=C(C)C(O)CCC1(C)C=Cc2c(c(C)cc3c2[nH]c2ccccc23)O1 (configuration not stated)	25 µM	1.93 µM	8.23 µM and 4.71 µM	4.24 µM	25 µM and 19.9 µM	2.47 µM	9.46 µM and 6.11 µM	7.57 µM	21.3 µM	2.11 µM	8.96 µM and 6.03 µM	10.7 µM	25 µM and 22.9 µM	3.64 µM	9.45 µM and 13.2 µM	9.8 µM
N#CC1(C#N)C2(c3ccccc3)OC(c3ccccc3)(c3cc4ccccc4cc32)C1(C#N)C#N	22.2 µM	–	26.7 µM	–	7.05 µM	–	36.4 µM	26.4 µM	31.7 µM	–	29.3 µM	–	26.8 µM	–	29.6 µM	30.1 µM
COc1cc(Br)c(C=Nc2cccc3cc(OC)c(OC)cc23)cc1OC	50.4 µM	–	> 100 µM	–	39.5 µM	–	> 100 µM	> 100 µM	–	–	> 100 µM	–	> 100 µM	–	66.9 µM	59 µM
COc1ccc(C23C(=O)c4ccccc4N2O[C@H]2C(=O)N(c4ccccc4)C(=O)[C@H]23)cc1 (some centres not stated)	> 100 µM	–	> 100 µM	–	> 100 µM	–	> 100 µM	> 100 µM	–	–	> 100 µM	–	> 100 µM	–	> 100 µM	> 100 µM
CSC(=Nc1nnc(-c2ccc([N+](=O)[O-])cc2)s1)SC	> 82 µM	–	> 100 µM	–	> 100 µM	–	53.3 µM	> 100 µM	> 100 µM	–	> 100 µM	–	> 100 µM	–	44.5 µM	33.6 µM
O=C(O)CCC(=O)N1c2ccccc2CC1c1c[nH]c2ccccc12 (configuration not stated)	> 100 µM	–	> 100 µM	–	> 100 µM	–	> 100 µM	> 100 µM	–	–	> 100 µM	–	> 100 µM	–	> 100 µM	> 100 µM
O=C(O)CN(CC(=O)O)Cc1cc(C#Cc2ccc(C#Cc3ccccc3)cc2)cc(CN(CC(=O)O)CC(=O)O)n1	47 µM	–	> 59.6 µM	–	> 56.7 µM	–	71 µM	> 76.3 µM	> 100 µM	–	> 81.6 µM	–	> 60.6 µM	–	59.3 µM	> 100 µM
O=C(COc1ccc(Cl)cc1)N1N=C(c2ccc(Cl)cc2)CC1(O)c1ccccc1 (configuration not stated)	> 100 µM	–	> 58.1 µM	–	28 µM	–	57 µM	> 50.9 µM	–	–	45.3 µM	–	30 µM	–	> 59.4 µM	> 72.7 µM
C=C(C)[C@@H]1CC[C@]2(C)CC[C@]3(C)[C@H](CC[C@@H]4[C@@]5(C)CC[C@H](O)C(C)(C)[C@@H]5CC[C@]43C)[C@@H]12	> 100 µM	–	> 100 µM	–	> 100 µM	–	> 100 µM	> 100 µM	40.4 µM	–	> 100 µM	–	> 64.2 µM	–	> 100 µM	> 80.1 µM
C/C(=N\NC(=S)N1CC2CCC(CC2)C1)c1nccs1	0.218 µM	–	20.4 µM	–	0.0184 µM	–	5.66 µM	1.35 µM	12.7 µM	–	15.8 µM	–	13.1 µM	–	3.57 µM	16.2 µM

— PubChem BioAssay (NCI)
